Reference: ChEMBL document CHEMBL4364344, “Design, synthesis and evaluation of activity and pharmacokinetic profile of new derivatives of xanthone and piperazine in the central nervous system” (Bioorg Med Chem Lett, 2019)

Key:
[1] = AUC (0 to total) in CD-1 mouse brain at 5 mg/kg, ip measured up to 480 mins by LC/ESI-MS/MS analysis; assay type: ADME, organism-based; conditions: in vivo, 8 h
[2] = target: 5-hydroxytryptamine receptor 5A (Homo sapiens) (UniProt P47898); assay: Displacement of [3H]LSD from recombinant human 5-HT5A receptor at 10 uM after 120 mins by radiometric scintillation analysis relative to control
[3] = Terminal half life in CD-1 mouse brain at 5 mg/kg, ip measured up to 480 mins by LC/ESI-MS/MS analysis; assay type: ADME, organism-based; conditions: read-out: beta t1/2
[4] = target: Muscarinic acetylcholine receptor M2 (Homo sapiens) (UniProt P08172); assay: Displacement of [3H]AF-DX 384 from recombinant human M2 receptor at 10 uM after 60 mins by radiometric scintillation analysis relative to control
[5] = tested on: Mus musculus; assay: Anxiolytic activity in albino Swiss CD-1 mouse assessed as increase in number of punished crossings at 5 mg/kg, ip administered 30 mins prior to test by four-plate test relative to control; assay type: functional
[6] = target: Substance-K receptor (Homo sapiens) (UniProt P21452); assay: Displacement of [125I]NKA from recombinant human NK2 receptor at 10 uM after 60 mins by radiometric scintillation analysis relative to control
[7] = target: C-X-C chemokine receptor type 2 (Homo sapiens) (UniProt P25025); assay: Displacement of [125I]IL-8 from recombinant human CXCR2 at 10 uM after 60 mins by radiometric scintillation analysis relative to control
[8] = target: Nociceptin receptor (Homo sapiens) (UniProt P41146); assay: Displacement of [3H]nociceptin from recombinant human ORL1 receptor at 10 uM after 60 mins by radiometric scintillation analysis relative to control
[9] = species on record: Rattus norvegicus; assay: Displacement of [3H]GABA from rat brain GABA receptor at 10 uM after 30 mins by radiometric scintillation analysis relative to control
[10] = Drug metabolism in mouse liver microsomes assessed as metabolite formation by measuring retention time at 20 uM after 30 to 60 mins in presence of NADP by UPLC/MS analysis; assay type: ADME, Microsome
[11] = Mutagenicity in Salmonella typhimurium TA102 at 50 ug/plate preincubated for 20 mins followed by addition of top agar and measured after 48 hrs by Ames test; assay type: toxicity; conditions: salmonella enterica subsp. enterica serovar typhimurium
[12] = species on record: Rattus norvegicus; assay: Displacement of [3H] TBPS from rat GABA gated chloride channel at 10 uM measured after 120 mins by scintillation counter method relative to control relative to control
[13] = target: Neuromedin-K receptor (Homo sapiens) (UniProt P29371); assay: Displacement of [3H]SR 142801 from recombinant human NK3 receptor at 10 uM after 120 mins by radiometric scintillation analysis relative to control
[14] = target: Vasopressin V1a receptor (Homo sapiens) (UniProt P37288); assay: Displacement of [3H]AVP recombinant human V1A receptor at 10 uM after 60 mins by radiometric scintillation analysis relative to control
[15] = Apparent volume of distribution in CD-1 mouse plasma at 5 mg/kg, ip measured up to 480 mins by LC/ESI-MS/MS analysis; assay type: ADME, organism-based
[16] = target: Sodium-dependent noradrenaline transporter (Homo sapiens) (UniProt P23975); assay: Displacement of [3H]nisoxetine recombinant human norepinephrine transporter at 10 uM after 120 mins by radiometric scintillation analysis relative to control
[17] = target: 5-hydroxytryptamine receptor 2A (Homo sapiens, UniProt P28223); assay: Displacement of [3H]ketanserin from recombinant human 5-HT2A receptor after 60 mins by radiometric scintillation analysis
[18] = Mutagenicity in Salmonella typhimurium TA98 at 5 ug/plate preincubated for 20 mins followed by addition of top agar and measured after 48 hrs by Ames test; assay type: toxicity; conditions: salmonella enterica subsp. enterica serovar typhimurium
[19] = target: 5-hydroxytryptamine receptor 7 (Homo sapiens) (UniProt P34969); assay: Displacement of [3H]LSD from recombinant human 5-HT7 receptor at 10 uM after 120 mins by radiometric scintillation analysis relative to control
[20] = target: Serotonin 3 (5-HT3) receptor (Homo sapiens) (UniProt P46098+A5X5Y0+O95264+Q70Z44+Q8WXA8); assay: Displacement of [3H]BRL 43694 from recombinant human 5-HT3 receptor at 10 uM after 120 mins by radiometric scintillation analysis relative to control; assay type: protein-complex assay
[21] = target: Beta-2 adrenergic receptor (Homo sapiens) (UniProt P07550); assay: Displacement of [3H](-)CGP 12177 from recombinant human beta 2 receptor at 10 uM after 120 mins by radiometric scintillation analysis relative to control
[22] = species on record: Rattus norvegicus; assay: Displacement of [3H]batrachotoxinin from rat brain sodium channel site 2 at 10 uM after 60 mins by scintillation counting analysis relative to control relative to control
[23] = species on record: Rattus norvegicus; assay: Displacement of [125I]alpha-dendrotoxin rat brain voltage-gated potassium channel at 10 uM after 60 mins by radiometric scintillation analysis relative to control
[24] = target: Neuropeptide Y receptor type 1 (Homo sapiens) (UniProt P25929); assay: Displacement of [125I]peptide YY from human Y1 receptor at 10 uM after 120 mins by radiometric scintillation analysis relative to control
[25] = target: Adenosine receptor A2a (Homo sapiens) (UniProt P29274); assay: Displacement of [3H]CGS 21680 from recombinant human A2A receptor at 10 uM after 120 mins by radiometric scintillation analysis relative to control
[26] = target: Neuropeptide Y receptor type 2 (Homo sapiens) (UniProt P49146); assay: Displacement of [125I]peptide YY from human Y2 receptor at 10 uM after 60 mins by radiometric scintillation analysis relative to control
[27] = Mutagenicity in Salmonella typhimurium TA100 at 5 ug/plate preincubated for 20 mins followed by addition of top agar and measured after 48 hrs by Ames test; assay type: toxicity; conditions: salmonella enterica subsp. enterica serovar typhimurium
[28] = target: Adenosine receptor A1 (Homo sapiens) (UniProt P30542); assay: Displacement of [3H]DPCPX from recombinant human A1 receptor at 10 uM after 60 mins by radiometric scintillation analysis relative to control
[29] = target: 5-hydroxytryptamine receptor 1B (Homo sapiens) (UniProt P28222); assay: Displacement of [3H]GR125743 from recombinant human 5-HT1B receptor at 10 uM after 60 mins by radiometric scintillation analysis relative to control
[30] = target: Type-1 angiotensin II receptor (Homo sapiens) (UniProt P30556); assay: Displacement of [125I][Sar1,Ile8]-AT-II from recombinant human AT1 receptor at 10 uM after 120 mins by radiometric scintillation analysis relative to control
[31] = target: Adrenergic receptor alpha-2 (Rattus norvegicus) (UniProt P22086+P19328+P22909); assay: Displacement of [3H]RX 821002 from rat brain alpha 2 receptor at 10 uM after 60 mins by radiometric scintillation analysis relative to control
[32] = target: D(1A) dopamine receptor (Homo sapiens) (UniProt P21728); assay: Displacement of [3H]SCH 23390 from recombinant human D1 dopamine receptor at 10 uM after 60 mins by radiometric scintillation analysis relative to control

Chain of Neuromedin-K receptor (Homo sapiens) (P29371 whole entry): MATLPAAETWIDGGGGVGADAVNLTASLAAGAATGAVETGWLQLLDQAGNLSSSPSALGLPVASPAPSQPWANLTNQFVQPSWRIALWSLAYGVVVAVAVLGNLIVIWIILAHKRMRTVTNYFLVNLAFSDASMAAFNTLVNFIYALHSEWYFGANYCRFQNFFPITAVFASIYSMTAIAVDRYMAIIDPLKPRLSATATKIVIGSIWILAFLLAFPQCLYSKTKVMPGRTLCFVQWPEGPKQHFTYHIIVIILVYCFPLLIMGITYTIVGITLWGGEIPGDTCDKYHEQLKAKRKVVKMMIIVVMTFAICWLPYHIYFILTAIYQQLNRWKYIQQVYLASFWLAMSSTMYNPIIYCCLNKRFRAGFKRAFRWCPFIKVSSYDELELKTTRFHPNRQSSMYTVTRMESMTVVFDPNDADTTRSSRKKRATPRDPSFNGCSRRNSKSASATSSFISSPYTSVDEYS
Chain of Nociceptin receptor (Homo sapiens) (P41146 whole entry): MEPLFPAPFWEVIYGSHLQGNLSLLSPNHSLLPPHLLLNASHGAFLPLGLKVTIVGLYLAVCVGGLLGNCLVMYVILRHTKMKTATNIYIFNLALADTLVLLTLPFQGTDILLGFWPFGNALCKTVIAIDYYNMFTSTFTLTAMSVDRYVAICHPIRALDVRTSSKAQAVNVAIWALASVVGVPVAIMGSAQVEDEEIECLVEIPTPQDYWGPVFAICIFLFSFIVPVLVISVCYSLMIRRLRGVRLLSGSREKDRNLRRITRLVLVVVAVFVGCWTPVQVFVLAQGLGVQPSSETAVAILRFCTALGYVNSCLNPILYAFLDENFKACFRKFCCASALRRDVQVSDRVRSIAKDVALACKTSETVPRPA
Chain of Beta-2 adrenergic receptor (Homo sapiens) (P07550 whole entry, looked up): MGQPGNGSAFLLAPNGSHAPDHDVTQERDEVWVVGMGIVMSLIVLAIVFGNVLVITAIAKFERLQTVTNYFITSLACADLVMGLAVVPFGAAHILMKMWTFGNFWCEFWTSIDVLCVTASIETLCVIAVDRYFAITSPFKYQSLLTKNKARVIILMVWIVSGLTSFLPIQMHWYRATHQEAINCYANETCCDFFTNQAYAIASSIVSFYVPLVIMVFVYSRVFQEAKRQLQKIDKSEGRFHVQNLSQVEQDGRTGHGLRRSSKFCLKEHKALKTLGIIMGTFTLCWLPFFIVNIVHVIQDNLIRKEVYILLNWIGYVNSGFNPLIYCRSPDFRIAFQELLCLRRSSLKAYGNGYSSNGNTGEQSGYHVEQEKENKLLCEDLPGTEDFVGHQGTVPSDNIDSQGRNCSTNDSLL
Chain of 5-hydroxytryptamine receptor 1B (Homo sapiens) (P28222 whole entry): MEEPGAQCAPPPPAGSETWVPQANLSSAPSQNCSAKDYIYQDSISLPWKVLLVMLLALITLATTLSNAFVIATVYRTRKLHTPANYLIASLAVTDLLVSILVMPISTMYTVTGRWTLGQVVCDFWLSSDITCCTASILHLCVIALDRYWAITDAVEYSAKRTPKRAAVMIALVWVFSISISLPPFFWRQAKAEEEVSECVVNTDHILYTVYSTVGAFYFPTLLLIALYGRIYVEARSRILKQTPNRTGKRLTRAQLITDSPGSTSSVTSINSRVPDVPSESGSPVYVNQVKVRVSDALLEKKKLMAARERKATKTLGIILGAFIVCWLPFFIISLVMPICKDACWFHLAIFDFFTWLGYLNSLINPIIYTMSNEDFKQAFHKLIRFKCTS
Chain of Adenosine receptor A1 (Homo sapiens) (P30542 whole entry): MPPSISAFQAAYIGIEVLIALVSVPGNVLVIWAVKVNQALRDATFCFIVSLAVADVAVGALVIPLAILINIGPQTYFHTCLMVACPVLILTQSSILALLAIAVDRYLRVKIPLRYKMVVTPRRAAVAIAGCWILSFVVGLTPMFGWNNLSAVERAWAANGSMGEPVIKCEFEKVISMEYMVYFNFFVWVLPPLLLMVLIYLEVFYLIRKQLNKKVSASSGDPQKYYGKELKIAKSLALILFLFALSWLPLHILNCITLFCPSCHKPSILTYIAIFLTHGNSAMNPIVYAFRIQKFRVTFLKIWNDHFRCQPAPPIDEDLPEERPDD
Chain of Muscarinic acetylcholine receptor M2 (Homo sapiens) (P08172 whole entry): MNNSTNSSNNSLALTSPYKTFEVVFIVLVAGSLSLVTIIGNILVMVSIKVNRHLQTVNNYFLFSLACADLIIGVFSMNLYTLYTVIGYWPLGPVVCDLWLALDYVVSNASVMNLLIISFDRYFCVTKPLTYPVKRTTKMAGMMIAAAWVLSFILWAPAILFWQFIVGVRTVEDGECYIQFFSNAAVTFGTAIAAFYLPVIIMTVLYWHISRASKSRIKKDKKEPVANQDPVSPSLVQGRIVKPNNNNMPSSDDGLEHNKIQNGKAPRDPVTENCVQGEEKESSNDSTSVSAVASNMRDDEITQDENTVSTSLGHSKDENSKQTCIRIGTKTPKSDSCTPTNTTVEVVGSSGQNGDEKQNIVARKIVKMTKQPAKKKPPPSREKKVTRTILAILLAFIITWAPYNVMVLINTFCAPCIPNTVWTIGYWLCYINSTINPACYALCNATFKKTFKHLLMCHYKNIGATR
Chain of 5-hydroxytryptamine receptor 7 (Homo sapiens) (P34969 whole entry): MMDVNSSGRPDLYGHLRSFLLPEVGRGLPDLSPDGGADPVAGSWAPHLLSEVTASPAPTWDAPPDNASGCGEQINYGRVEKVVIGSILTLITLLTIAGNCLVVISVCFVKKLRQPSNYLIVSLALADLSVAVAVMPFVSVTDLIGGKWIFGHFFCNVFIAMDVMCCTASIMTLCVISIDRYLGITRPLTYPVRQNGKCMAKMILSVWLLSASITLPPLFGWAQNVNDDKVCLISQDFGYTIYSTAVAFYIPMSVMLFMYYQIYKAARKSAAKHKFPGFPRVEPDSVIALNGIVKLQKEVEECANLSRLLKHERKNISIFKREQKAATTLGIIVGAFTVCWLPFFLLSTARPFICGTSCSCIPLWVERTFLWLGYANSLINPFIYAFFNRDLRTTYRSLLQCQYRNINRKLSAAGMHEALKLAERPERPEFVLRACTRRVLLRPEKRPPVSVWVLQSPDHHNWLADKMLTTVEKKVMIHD
Chain of Neuropeptide Y receptor type 1 (Homo sapiens) (P25929 whole entry): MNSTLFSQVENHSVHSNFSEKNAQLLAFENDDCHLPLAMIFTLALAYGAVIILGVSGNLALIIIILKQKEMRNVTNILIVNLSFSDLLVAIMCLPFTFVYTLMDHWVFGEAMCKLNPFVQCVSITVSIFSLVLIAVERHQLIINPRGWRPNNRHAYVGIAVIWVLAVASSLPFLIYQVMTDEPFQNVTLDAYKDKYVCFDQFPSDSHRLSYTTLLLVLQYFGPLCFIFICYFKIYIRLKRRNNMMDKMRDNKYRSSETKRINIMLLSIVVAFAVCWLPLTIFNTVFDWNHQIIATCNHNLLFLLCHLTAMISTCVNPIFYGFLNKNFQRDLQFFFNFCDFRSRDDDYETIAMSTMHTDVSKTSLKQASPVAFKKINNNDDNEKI
Chain of Neuropeptide Y receptor type 2 (Homo sapiens) (P49146 whole entry): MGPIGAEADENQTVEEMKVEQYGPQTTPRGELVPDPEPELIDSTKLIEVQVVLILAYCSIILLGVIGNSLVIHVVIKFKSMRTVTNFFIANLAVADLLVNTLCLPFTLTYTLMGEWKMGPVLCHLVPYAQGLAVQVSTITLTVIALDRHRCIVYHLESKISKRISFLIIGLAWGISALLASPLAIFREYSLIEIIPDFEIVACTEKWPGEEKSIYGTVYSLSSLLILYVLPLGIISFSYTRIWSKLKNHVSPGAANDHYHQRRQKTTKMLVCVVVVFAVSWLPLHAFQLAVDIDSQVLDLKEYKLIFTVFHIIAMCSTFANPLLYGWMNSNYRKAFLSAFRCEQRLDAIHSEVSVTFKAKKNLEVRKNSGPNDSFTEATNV
Chain of Vasopressin V1a receptor (Homo sapiens) (P37288 whole entry, looked up): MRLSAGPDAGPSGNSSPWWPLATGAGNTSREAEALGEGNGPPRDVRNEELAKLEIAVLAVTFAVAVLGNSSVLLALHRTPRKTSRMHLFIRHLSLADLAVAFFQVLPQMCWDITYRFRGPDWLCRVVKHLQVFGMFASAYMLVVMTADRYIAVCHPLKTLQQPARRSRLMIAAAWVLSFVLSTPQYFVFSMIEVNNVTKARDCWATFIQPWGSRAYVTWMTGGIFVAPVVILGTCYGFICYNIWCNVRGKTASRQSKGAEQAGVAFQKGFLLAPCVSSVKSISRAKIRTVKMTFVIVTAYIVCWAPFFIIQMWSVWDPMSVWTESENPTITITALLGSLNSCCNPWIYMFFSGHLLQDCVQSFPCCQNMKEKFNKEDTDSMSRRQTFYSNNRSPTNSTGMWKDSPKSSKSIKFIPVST
Chain of Adenosine receptor A2a (Homo sapiens) (P29274 whole entry): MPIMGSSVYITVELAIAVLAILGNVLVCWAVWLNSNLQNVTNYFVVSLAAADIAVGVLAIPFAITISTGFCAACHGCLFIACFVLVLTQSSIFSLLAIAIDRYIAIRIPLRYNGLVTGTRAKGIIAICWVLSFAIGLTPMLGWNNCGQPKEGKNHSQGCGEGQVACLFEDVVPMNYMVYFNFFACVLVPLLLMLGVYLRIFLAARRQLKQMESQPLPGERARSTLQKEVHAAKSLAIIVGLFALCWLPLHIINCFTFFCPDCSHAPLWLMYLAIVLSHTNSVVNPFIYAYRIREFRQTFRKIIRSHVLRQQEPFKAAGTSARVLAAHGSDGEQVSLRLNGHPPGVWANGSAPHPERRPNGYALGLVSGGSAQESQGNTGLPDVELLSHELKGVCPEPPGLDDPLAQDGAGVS
Chain of C-X-C chemokine receptor type 2 (Homo sapiens) (P25025 whole entry): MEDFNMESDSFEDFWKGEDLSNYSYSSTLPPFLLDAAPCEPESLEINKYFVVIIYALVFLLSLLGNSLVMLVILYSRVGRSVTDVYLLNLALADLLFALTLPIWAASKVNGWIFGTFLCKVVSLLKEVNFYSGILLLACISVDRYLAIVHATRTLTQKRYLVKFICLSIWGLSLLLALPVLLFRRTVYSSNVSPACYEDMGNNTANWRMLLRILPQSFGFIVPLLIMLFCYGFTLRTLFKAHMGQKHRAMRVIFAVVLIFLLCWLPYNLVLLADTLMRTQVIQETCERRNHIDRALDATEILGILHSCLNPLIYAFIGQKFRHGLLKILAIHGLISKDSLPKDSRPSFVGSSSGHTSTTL

Work on `Cl.Cl.O=c1c2cc(Cl)ccc2oc2ccc(CN3CCN(CCOCCO)CC3)cc12` yielded an AUCt [1] of 3227321 ng·min/g, an inhibition [2] of 13.8% and a half-life [3] of 2.88 h. For the same compound, the inhibition [4] was 35.9%, the Activity [5] was 66.6% and the inhibition [6] was 49.4%. For the same compound, the inhibition [7] was 19.8%, the inhibition [8] was 6.5% and the inhibition [9] was 11.7%. It also gave a Retention_time [10] of 4.49 min, an Activity_index [11] of 0.78 and an inhibition [12] of 5%. For the same compound, the inhibition [13] was 3.2%, the inhibition [14] was -0.2% and the Vd/F [15] was 3.06 L/kg. For the same compound, the inhibition [16] was 43.1%, the Ki [17] was 2.02 µM and the Activity_index [18] was 1.03. It also gave an inhibition [19] of 5.3%, an inhibition [20] of 5.5% and an inhibition [21] of 3.7%. For the same compound, the inhibition [22] was 78.7%, the inhibition [23] was -3.1% and the inhibition [24] was -9.5%. For the same compound, the inhibition [25] was 12.2%, the inhibition [26] was 3.1% and the Activity_index [27] was 0.66. The inhibition [28] was 0.6%, the inhibition [29] was 32.7% and the inhibition [30] was 8.4%. The inhibition [31] was 9.2% and the inhibition [32] was 8.9%.
